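Dose response: 5 concentrations. Exposure: 48 h. Format: 96-well plates. Endpoint: linear interpolation; highest concentration if not reached. TGI is the concentration that stops growth completely.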
Assays:
Experiment in all cases: DTP human tumour cell line panel, 48 h
SK-OV-3 ovarian = test system: SK-OV-3 ovarian
MCF7 breast = test system: MCF7 breast
DU-145 prostate = test system: DU-145 prostate
UO-31 renal = test system: UO-31 renal
M19-MEL melanoma = test system: M19-MEL melanoma
DMS 114 small cell lung = test system: DMS 114 small cell lung
A549 NSCLC = test system: A549 NSCLC
T-47D breast = test system: T-47D breast
HCT-116 colon = test system: HCT-116 colon
SN12C renal = test system: SN12C renal
SF-268 CNS = test system: SF-268 CNS
RXF 393 renal = test system: RXF 393 renal
HT29 colon = test system: HT29 colon
K-562 leukemia = test system: K-562 leukemia
DMS 273 small cell lung = test system: DMS 273 small cell lung
HOP-18 NSCLC = test system: HOP-18 NSCLC
OVCAR-8 ovarian = test system: OVCAR-8 ovarian
OVCAR-3 ovarian = test system: OVCAR-3 ovarian
HOP-62 NSCLC = test system: HOP-62 NSCLC
DLD-1 colon = test system: DLD-1 colon
HCT-15 colon = test system: HCT-15 colon
RPMI-8226 leukemia = test system: RPMI-8226 leukemia
SK-MEL-28 melanoma = test system: SK-MEL-28 melanoma
IGROV1 ovarian = test system: IGROV1 ovarian
MDA-N = test system: MDA-N
NCI-H226 lung = test system: NCI-H226 lung
U251 CNS = test system: U251 CNS
SF-539 CNS = test system: SF-539 CNS
PC-3 prostate = test system: PC-3 prostate
MDA-MB-435 = test system: MDA-MB-435
KM20L2 colon = test system: KM20L2 colon
786-0 renal = test system: 786-0 renal
SK-MEL-2 melanoma = test system: SK-MEL-2 melanoma
SF-295 CNS = test system: SF-295 CNS
COLO 205 colon = test system: COLO 205 colon
SNB-78 CNS = test system: SNB-78 CNS
UACC-257 melanoma = test system: UACC-257 melanoma
MOLT-4 leukemia = test system: MOLT-4 leukemia
CAKI-1 renal = test system: CAKI-1 renal
NCI-H23 lung = test system: NCI-H23 lung
KM12 colon = test system: KM12 colon
SW-620 colon = test system: SW-620 colon
HS 578T breast = test system: HS 578T breast
OVCAR-5 ovarian = test system: OVCAR-5 ovarian
SNB-19 CNS = test system: SNB-19 CNS
MDA-MB-231 breast = test system: MDA-MB-231 breast
TK-10 renal = test system: TK-10 renal
HL-60(TB) leukemia = test system: HL-60(TB) leukemia
NCI/ADR-RES ovarian = test system: NCI/ADR-RES ovarian
SR leukemia = test system: SR leukemia
EKVX NSCLC = test system: EKVX NSCLC
SNB-75 CNS = test system: SNB-75 CNS
LOX IMVI melanoma = test system: LOX IMVI melanoma
BT-549 breast = test system: BT-549 breast
NCI-H460 lung = test system: NCI-H460 lung
SK-MEL-5 melanoma = test system: SK-MEL-5 melanoma
A498 renal = test system: A498 renal
UACC-62 melanoma = test system: UACC-62 melanoma
OVCAR-4 ovarian = test system: OVCAR-4 ovarian
XF 498 CNS = test system: XF 498 CNS
NCI-H522 lung = test system: NCI-H522 lung
M14 melanoma = test system: M14 melanoma
MALME-3M melanoma = test system: MALME-3M melanoma
HCC-2998 colon = test system: HCC-2998 colon
HOP-92 NSCLC = test system: HOP-92 NSCLC
CCRF-CEM leukemia = test system: CCRF-CEM leukemia
ACHN renal = test system: ACHN renal
LXFL 529 NSCLC = test system: LXFL 529 NSCLC

Measured: TGI

S=c1c2[nH]cnc2ncn1CCSC1=NC=NC2=NC=NC21 (centres undefined)
> 100 µM: SK-OV-3 ovarian | MCF7 breast | DU-145 prostate | UO-31 renal | M19-MEL melanoma | DMS 114 small cell lung | A549 NSCLC | T-47D breast | HCT-116 colon | SN12C renal | SF-268 CNS | RXF 393 renal | HT29 colon | K-562 leukemia | DMS 273 small cell lung | HOP-18 NSCLC | OVCAR-8 ovarian | OVCAR-3 ovarian | HOP-62 NSCLC | DLD-1 colon | HCT-15 colon | RPMI-8226 leukemia | SK-MEL-28 melanoma | IGROV1 ovarian | MDA-N | NCI-H226 lung | U251 CNS | SF-539 CNS | PC-3 prostate | MDA-MB-435 | KM20L2 colon | 786-0 renal | SK-MEL-2 melanoma | SF-295 CNS | COLO 205 colon | SNB-78 CNS | UACC-257 melanoma | MOLT-4 leukemia | CAKI-1 renal | NCI-H23 lung | KM12 colon | SW-620 colon | HS 578T breast | OVCAR-5 ovarian | SNB-19 CNS | MDA-MB-231 breast | TK-10 renal | HL-60(TB) leukemia | NCI/ADR-RES ovarian | SR leukemia | EKVX NSCLC | SNB-75 CNS | LOX IMVI melanoma | BT-549 breast | NCI-H460 lung | SK-MEL-5 melanoma | A498 renal | UACC-62 melanoma | OVCAR-4 ovarian | XF 498 CNS | NCI-H522 lung | M14 melanoma | MALME-3M melanoma | HCC-2998 colon | HOP-92 NSCLC | CCRF-CEM leukemia | ACHN renal

Cc1ccc(NC(=O)CC/C(CC(=O)C(C)(C)C)=N\NC(=O)C[n+]2ccccc2)cc1C
> 100 µM: SK-OV-3 ovarian | UO-31 renal | M19-MEL melanoma | DMS 114 small cell lung | A549 NSCLC | HCT-116 colon | SN12C renal | SF-268 CNS | RXF 393 renal | HT29 colon | K-562 leukemia | DMS 273 small cell lung | HOP-18 NSCLC | OVCAR-8 ovarian | OVCAR-3 ovarian | HOP-62 NSCLC | HCT-15 colon | RPMI-8226 leukemia | SK-MEL-28 melanoma | IGROV1 ovarian | NCI-H226 lung | U251 CNS | SF-539 CNS | KM20L2 colon | 786-0 renal | SK-MEL-2 melanoma | SF-295 CNS | COLO 205 colon | SNB-78 CNS | UACC-257 melanoma | MOLT-4 leukemia | CAKI-1 renal | NCI-H23 lung | KM12 colon | SW-620 colon | OVCAR-5 ovarian | SNB-19 CNS | TK-10 renal | HL-60(TB) leukemia | SR leukemia | EKVX NSCLC | LXFL 529 NSCLC | SNB-75 CNS | LOX IMVI melanoma | NCI-H460 lung | SK-MEL-5 melanoma | A498 renal | UACC-62 melanoma | OVCAR-4 ovarian | XF 498 CNS | NCI-H522 lung | M14 melanoma | MALME-3M melanoma | HCC-2998 colon | HOP-92 NSCLC | CCRF-CEM leukemia | ACHN renal

From PubChem BioAssay (NCI)
